Measurements: US20240043943A1, “METHODS AND COMPOSITIONS FOR PROTEASE REPORTER ASSAYS AND MODULATORS” (712 NORTH, INC., priority 2021, published 2024)
“Also recorded” adds a separate entry of the source.

Experiments:
[1] = target: T1, Luke (native NanoLuc enzyme) (Oplophorus gracilirostris, UniProt Q9GV45, A31E/A60N/A81I/F95D/I117V/K70R/L54V/L99Q/M102K/N193R/P142E/Q151K/Q38R/Q45L/V71I/Y165I); experiment: Luke (native NanoLuc) control cell bioluminescence assay in Hek293T cells; assay type: cell-based; conditions: for bioluminescence of Luke cells in dose-response: 30 minutes incubation
T1 construct: expressed in transfected cells
From the text: (§1) Luke-S1 is targeted to the mitochondrial inner membrane by an 86 amino acid portion of OPA1's […] with the protein sequence SEQ ID NO: 27 and the DNA sequence SEQ ID ID NO:28.

Luke-TEV reporter [2] = experiment: Luke-TEV control reporter bioluminescence assay in Hek293T cells; assay type: cell-based, human
From the text: as §1

reporter #01 = experiment: Rep#01 reporter hydrolysis in Hek293T cells by Western blot; assay type: cell-based, human; conditions: 10 μM CCCP, 30 minutes
Protocol: Example 2 refers to FIG. 4 and illustrates hydrolysis of reporter #01 and reporter #15. For this example, transfected cells were selected by puromycin. Reporter cells were exposed for 30 minutes to 10 μM CCCP before being harvested in RIPA buffer and subjected to 12% SDS-PAGE followed by Western-blotting. […] Full-length reporter #01 has a predicted size of 39.6 kDa but was not detected in Western blots. […] At the same time, reporter #15 is not processed upon import, but migrated at its expected size of 31.9 kDa. (Example 7 establishes mitochondrial import by showing co-migration of reporter #15 with OPA1 and OMA1 in mitochondria-enriched fractions.) Reporter #15 appears to be more abundant and stable, which may explain its better performance. […] This provides additional evidence that reporter #15 is indeed localized in mitochondria where it is recognized and hydrolyzed by OMA1. […] Therefore, phenanthroline was used as a positive control in the reporter assay. If reporter #15 indeed is cleaved by OMA1, then phenanthroline should prevent this at least to a certain extend by inhibiting OMA1 and accordingly preserving the signal. Hek293T cells were transfected with reporter gene #15 as described in the preceding example. […] After 30 minutes, the medium was replaced with furimazine (1:100 in OptiMEM), and bioluminescence measured as described in Example 1.

OMA1 protease [3] = target: T2, OMA1 protease (Homo sapiens, UniProt Q96E52); experiment: Rep#01 OMA1 reporter bioluminescence assay in Hek293T cells; assay type: cell-based; parameters: The OMA1 enzyme is dormant under physiological cell culture conditions in these cells; endogenous in cells; host or cells: Hek293T cells, transiently or stably (Luke-S1 line, ATCC PTA-127022) expressing reporter #15; conditions: 30 minutes exposure, CCCP 10 μM
T2 sequence (Q96E52 144-524): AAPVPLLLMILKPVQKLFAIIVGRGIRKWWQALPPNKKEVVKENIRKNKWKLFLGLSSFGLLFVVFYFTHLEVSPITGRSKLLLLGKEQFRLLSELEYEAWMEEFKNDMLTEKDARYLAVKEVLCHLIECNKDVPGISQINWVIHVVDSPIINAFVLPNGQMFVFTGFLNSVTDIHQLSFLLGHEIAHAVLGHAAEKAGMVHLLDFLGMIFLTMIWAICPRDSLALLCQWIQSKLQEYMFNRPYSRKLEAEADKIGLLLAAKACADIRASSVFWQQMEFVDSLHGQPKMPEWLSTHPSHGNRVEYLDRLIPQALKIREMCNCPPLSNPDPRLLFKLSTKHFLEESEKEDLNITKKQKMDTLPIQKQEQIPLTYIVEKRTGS
From the text: Example 1 provides a nonlimiting example of generation and use of a reporter of present invention and illustrates its function. To this end, generation and use of reporter gene #01 (SEQ ID NO: 01) and reporter gene #15 (SEQ ID NO: 15) are described and their function compared to each other. The general design of a reporter of present invention is illustrated in FIG. 1A and its working principle in FIG. 1B. A reporter in general, and reporter gene #01 and reporter gene #15 in particular, can be generated as follows. DNA sequences of a reporter may be codon-optimized in silico or by any other way for expression in a suitable host. DNA sequences of reporter genes #01 and #15 were codon-optimized for expression in humans (SEQ ID NO: 02 and SEQ ID NO: 16, respectively). The (optimized) sequences were synthesized and cloned into a pcDNA3.1 expression vector under the control of a CMV promotor (see FIG. 1 for an illustration of such vector). Of course, an expression system and a host should match for best results. The host in this example were Hek293T cells, which were maintained under standard culture conditions in DMEM with 10% Fetal Bovine Serum and 1% Pen/Strep. For an experiment, Hek293T cells were seeded in opaque white tissue-culture treated 96-well plates at 80% confluency and transfected with vectors carrying reporter gene #01 and reporter gene #15 and 24 hours later incubated for 30 minutes at 37° C. in OptiMEM or in OptiMEM with 10 μM CCCP. After 30 minutes, the OptiMEM cell-culture media was replaced with luciferase substrate (furimazine, Promega) diluted 1:100 in OptiMEM, and bioluminescence was measured with a Fluoroskan Ascent FL (Thermo Scientific) using a 517 nm single-pass filter and 200 milliseconds integration time. […]
Example 5 illustrates how mitochondrial toxicity can be measured with reporter and assays of present invention. […] Hek293T cells expressing reporter #01 and #15 were exposed to CCCP, tipranavir and sorafenib (in OptiMEM) for 30 minutes before the medium was replaced with furimazine (1:100), and bioluminescence measured.

Luke-TEV reporter [4] = experiment: Luke-TEV reporter cleavage in Hek293T cells by Western blot; assay type: cell-based, human; conditions: 3 μM CCCP or 100 nM valinomycin
From the text: (§2) OPA1 hydrolysis can be monitored by Western blotting. […] The predicted size of full-length Luke-S1 is 31.8 kDa.

OPA1 = OPA1 hydrolysis in Hek293T cells by Western blot; assay type: cell-based, human; conditions: 30 minutes
From the text: as §2

OMA1 protease [5] = target: T2, OMA1 protease; experiment: Rep#15 / Luke-S1 OMA1 reporter bioluminescence assay in Hek293T cells; assay type: cell-based; parameters: The OMA1 enzyme is dormant under physiological cell culture conditions in these cells; endogenous in cells; host or cells: Hek293T cells, transiently or stably (Luke-S1 line, ATCC PTA-127022) expressing reporter #15; conditions: Hek293T, 30 minutes exposure; CCCP 10 μM
From the text: Example 1 provides a nonlimiting example of generation and use of a reporter of present invention and illustrates its function. To this end, generation and use of reporter gene #01 (SEQ ID NO: 01) and reporter gene #15 (SEQ ID NO: 15) are described and their function compared to each other. The general design of a reporter of present invention is illustrated in FIG. 1A and its working principle in FIG. 1B. A reporter in general, and reporter gene #01 and reporter gene #15 in particular, can be generated as follows. DNA sequences of a reporter may be codon-optimized in silico or by any other way for expression in a suitable host. DNA sequences of reporter genes #01 and #15 were codon-optimized for expression in humans (SEQ ID NO: 02 and SEQ ID NO: 16, respectively). The (optimized) sequences were synthesized and cloned into a pcDNA3.1 expression vector under the control of a CMV promotor (see FIG. 1 for an illustration of such vector). Of course, an expression system and a host should match for best results. The host in this example were Hek293T cells, which were maintained under standard culture conditions in DMEM with 10% Fetal Bovine Serum and 1% Pen/Strep. For an experiment, Hek293T cells were seeded in opaque white tissue-culture treated 96-well plates at 80% confluency and transfected with vectors carrying reporter gene #01 and reporter gene #15 and 24 hours later incubated for 30 minutes at 37° C. in OptiMEM or in OptiMEM with 10 μM CCCP. After 30 minutes, the OptiMEM cell-culture media was replaced with luciferase substrate (furimazine, Promega) diluted 1:100 in OptiMEM, and bioluminescence was measured with a Fluoroskan Ascent FL (Thermo Scientific) using a 517 nm single-pass filter and 200 milliseconds integration time. […] Reporter #01 comprises a large part of OPA1's amino-terminus as mitochondrial targeting sequence, which is cleaved by the mitochondrial processing peptidase upon mitochondrial import (see Example 2). Reporter #15 was initially envisioned as a control for reporter #01. Reporter #15 therefore lacks the first 66 amino acids of reporter #01 believed to be essential for mitochondrial import.
Example 5 illustrates how mitochondrial toxicity can be measured with reporter and assays of present invention. The OMA1-OPA1 pathway basically serves as a “canary-in-the-coalmine” for a mitochondrial deterioration. […] Hek293T cells expressing reporter #01 and #15 were exposed to CCCP, tipranavir and sorafenib (in OptiMEM) for 30 minutes before the medium was replaced with furimazine (1:100), and bioluminescence measured.
The following non-limiting examples illustrate in more details the in vivo assessment of OMA1 protease activity utilizing an artificial luciferase reporter of present invention stably expressed in Hek293T cells.

Luke-S1 reporter = experiment: Rep#15 / Luke-S1 reporter cleavage in Hek293T cells by Western blot; assay type: cell-based, human; conditions: for cleavage of the Luke-S1 reporter in Western blots: 3 μM CCCP or 100 nM valinomycin
Protocol: For this example, transfected cells were selected by puromycin. […] […] If reporter #15 indeed is cleaved by OMA1, then phenanthroline should prevent this at least to a certain extend by inhibiting OMA1 and accordingly preserving the signal. Hek293T cells were transfected with reporter gene #15 as described in the preceding example. After 24 hours, the transfected cells were incubated with 500 μM phenanthroline in OptiMEM. After 1 hour of pretreatment, CCCP in OptiMEM/phenanthroline was added. to a final concentration of 10 μM CCCP and cells incubated for another 30 minutes at 37° C. After 30 minutes, the medium was replaced with furimazine (1:100 in OptiMEM), and bioluminescence measured as described in Example 1.
as §2

OMA1 protease [6] = target: T2, OMA1 protease; experiment: Screen of 166 FDA-approved cancer drugs and 390 natural products in Luke-S1 assays; assay type: cell-based; parameters: The OMA1 enzyme is dormant under physiological cell culture conditions in these cells; endogenous in cells; host or cells: Hek293T cells, transiently or stably (Luke-S1 line, ATCC PTA-127022) expressing reporter #15; conditions: valinomycin treated controls, ± SD
Protocol: Luke-S1 reporter cells were incubated with 10 μM of drugs for 60 minutes after which luciferase substrate was added and bioluminescence measured.

OMA1 protease [7] = target: T2, OMA1 protease; conditions: literature; cited from earlier work
OMA1 protease [8] = target: T2, OMA1 protease; experiment: Rep#15 / Luke-S1 OMA1 reporter bioluminescence assay in Hek293T cells; assay type: cell-based; parameters: The OMA1 enzyme is dormant under physiological cell culture conditions in these cells; endogenous in cells; host or cells: Hek293T cells, transiently or stably (Luke-S1 line, ATCC PTA-127022) expressing reporter #15

T1 sequence (Q9GV45 with tags, fused parts or gaps with the stated changes): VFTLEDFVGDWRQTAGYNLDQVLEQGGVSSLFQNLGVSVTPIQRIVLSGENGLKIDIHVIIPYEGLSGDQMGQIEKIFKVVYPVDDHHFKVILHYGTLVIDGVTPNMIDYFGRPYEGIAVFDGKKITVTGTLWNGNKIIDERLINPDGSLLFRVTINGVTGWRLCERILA

SMILES	bioluminescence of Luke cells in dose-response [1]	EC50 (Luke-TEV reporter [2]; Luke-TEV cells, 30 minutes incubation)	processing of reporter #01 in Western blot (reporter #01)	bioluminescence signal of reporter #01 (OMA1 protease [3])	cleavage of the Luke-TEV reporter in Western blots (Luke-TEV reporter [4])	L-OPA1 proteolysis in Western blots (OPA1; 3 μM CCCP)	bioluminescence signal of reporter #15 (OMA1 protease [5])	cleavage of the Luke-S1 reporter in Western blots (Luke-S1 reporter)	processing of reporter #15 in Western blot (Luke-S1 reporter; 10 μM CCCP, 30 minutes)	real-time bioluminescence of Luke vs cells without valinomycin ([1]; 100 nM valinomycin added with luciferase substrate, after 10 minutes)	real-time bioluminescence of Luke-TEV vs cells without valinomycin (Luke-TEV reporter [2]; 100 nM valinomycin added with luciferase substrate)	signal of Luke-TEV cells in dose-response (Luke-TEV reporter [2]; 30 minutes incubation)	signal intensity normalized to untreated cells (100%) (OMA1 protease [6])	L-OPA1 proteolysis in Western blots (OPA1; 0.1 μM (100 nM) valinomycin)	effect on OMA1 protease (OMA1 protease [7])	real-time bioluminescence of Luke-S1 vs cells without valinomycin (OMA1 protease [8]; 100 nM valinomycin added with luciferase substrate, 25 minutes recording)	Luke-S1 signal in cells treated with OMA1 siRNA (OMA1 protease [8]; 100 nM valinomycin, 30 minutes)	Luke-S1 signal in cells treated with control siRNA (OMA1 protease [8]; 100 nM valinomycin, 30 minutes)	Luke-S1 signal in cells treated with OMA1 siRNA (OMA1 protease [8]; 100 nM valinomycin, 30 minutes, listed as Valinomycin)
N#CC(C#N)=NNc1cccc(Cl)c1 [CCCP, carbonyl cyanide m-chlorophenyl hydrazone]	completely eliminated	566 nM	led to processing	significantly reduced bioluminescence	cleaved; also recorded: induced Luke-S1 and Luke-TEV cleavage	complete disappearance of L-OPA1 isoforms; also recorded: complete L-OPA1 proteolysis	significantly reduced or substantially absent luciferase activity; also recorded: abolished; also recorded: significantly reduced bioluminescence	induced cleavage of the Luke-S1 reporter; also recorded: induced Luke-S1 and Luke-TEV cleavage	led to processing										
CC(C)[C@@H]1NC(=O)[C@H](C)OC(=O)[C@@H](C(C)C)NC(=O)[C@@H](C(C)C)OC(=O)[C@H](C(C)C)NC(=O)[C@H](C)OC(=O)[C@@H](C(C)C)NC(=O)[C@@H](C(C)C)OC(=O)[C@H](C(C)C)NC(=O)[C@H](C)OC(=O)[C@@H](C(C)C)NC(=O)[C@@H](C(C)C)OC1=O [valinomycin]	no effects				cleaved; also recorded: induced Luke-S1 and Luke-TEV cleavage			induced cleavage of the Luke-S1 reporter; also recorded: induced Luke-S1 and Luke-TEV cleavage		no notable differences	much smaller difference	only a minor signal reduction	18.5%	sufficed for OPA1 cleavage; also recorded: complete L-OPA1 proteolysis	can activate the OMA1 protease	marked signal reduction	no significant signal reduction	significant signal reduction	not in Luke-S1 cells treated with OMA1 siRNA
